Test [1] concerns the target Norwalk GGI.1 Norovirus protease (Norovirus, UniProt Q83883). The test is described as follows: Noro-Norwalk FRET protease assay (Norwalk GGI.1). Type of test: biochemical, Norwalk virus. How it is done:
Viral protease assays: The antiviral activities of inhibitors were determined by FRET (Fluorescence Resonance Energy Transfer) assay. Purified viral protease was incubated with the protease substrate peptide (Edans-DFHLQ/GP-Dabcyl) and inhibitor, and IC50 values were subsequently determined by the fluorescence signals.
The Noro-Norwalk FRET protease assay was performed in 50 mM HEPES-Na pH 8, 50 mM NaCl, 0.4 mM EDTA, 4% glycerol, and 6 mM DTT. A self-quenching peptide substrate [5-FAM]-[…]-[TAMRA] was custom synthesized by Anaspec. Compounds were diluted in 3-fold serial dilutions to final concentrations of 200 μM to 10.2 nM. Noro protease was added to a final concentration of 1-7 μM, depending on the enzyme activity level, and the peptide substrate was added to a final concentration of 10 μM. The assay was incubated 90 minutes at 37° C. and read in a Perkin Elmer Envision with excitation at 473 nm and emission measurement at 519 nm.

Another test addresses SARS2 protease (Severe acute respiratory syndrome coronavirus 2, UniProt P0DTD1). The test is described as follows: SARS-CoV-2 protease inhibition assay (SARS2 FRET protease assay). Type of test: biochemical. In short, it runs like this:
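SARS-CoV-2 protease (25 nM) was incubated for 30 min at 30 °C with 1.3 μM quenched 5-FAM/TAMRA peptide substrate and compound (3-fold dilutions, 20 μM–1.0 nM). The buffer was 20 mM HEPES-Na pH 7, 120 mM NaCl, 0.4 mM EDTA, 0.01% Triton, 5% glycerol and 4 mM DTT. Fluorescence was read at ex 473 and em 519 nm, and IC50 was derived.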

Test [2] concerns the target HuNV GGII.4 Norovirus protease (Norovirus GII.4 (human norovirus genogroup II genotype 4), UniProt P54634). Put plainly: Norovirus protease FRET assay (HuNV GGII.4). Type of test: biochemical.
Where [3] appears, read: Table C, FRET protease assay, read-out: Norwalk GGI.1 IC50.
[4] abbreviates: Table E, SARS-CoV-2 protease inhibition, read-out: IC50.
The mark [5] stands for this setting: Table C, FRET protease assay, read-out: HuNV GGII.4 IC50.

Like-named read-outs stand apart in the source and are kept apart here. Bounds are passed on as bounds.

As a reminder, the IC50 is the concentration that inhibits the measured activity by half.

Sequence of HuNV GGII.4 Norovirus protease (P54634 1009-1189): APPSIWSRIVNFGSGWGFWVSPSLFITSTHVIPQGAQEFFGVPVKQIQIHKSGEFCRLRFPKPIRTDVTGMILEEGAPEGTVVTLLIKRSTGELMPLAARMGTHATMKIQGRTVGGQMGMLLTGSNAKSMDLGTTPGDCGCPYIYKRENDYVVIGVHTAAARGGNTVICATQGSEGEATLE
Sequence of Norwalk GGI.1 Norovirus protease (Q83883 1101-1281): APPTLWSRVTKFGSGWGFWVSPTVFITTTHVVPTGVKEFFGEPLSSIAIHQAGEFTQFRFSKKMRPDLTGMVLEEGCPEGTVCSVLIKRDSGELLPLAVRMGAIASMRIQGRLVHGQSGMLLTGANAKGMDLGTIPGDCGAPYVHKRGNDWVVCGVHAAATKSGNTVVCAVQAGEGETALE

`CCOCCOCCN(C)C(=O)CC[C@@H](C=O)NC(=O)[C@H](CC1CCCCC1)NC(=O)OCc1cccc(Cl)c1` [Compound A25, 3-Chlorobenzyl ((13S,16S)-17-cyclohexyl-13-formyl-9-methyl-10,15-dioxo-3,6-dioxa-9,14-diazaheptadecan-16-yl)carbamate]: the 50% inhibitory concentration (IC50) in test [1] (setting [3]) was 17.2 µM; at SARS2 protease (setting [4]), over 200 µM; in test [2] (setting [5]), 39.4 µM.

For the molecule `CC(CN(C)C(=O)CC[C@@H](C=O)NC(=O)[C@H](CC1CCCCC1)NC(=O)OCc1cccc(Cl)c1)c1ccccc1` (stereo in doubt) [Compound A49, 3-Chlorobenzyl ((2S)-3-cyclohexyl-1-(((2S)-5-(methyl(2-phenylpropyl)amino)-1,5-dioxopentan-2-yl)amino)-1-oxopropan-2-yl)carbamate], the half-maximal inhibitory concentration (IC50) in test [1] (setting [3]) is 15 µM; at SARS2 protease (setting [4]), over 200 µM; in test [2] (setting [5]) it was 76.7 µM.

As to `CCCC1CCCC/C=C/CC(C(=O)N(C)Cc2ccc(OC)cc2OC)C[C@@H](C(O)P(=O)(OCC)OCC)NC(=O)[C@H](CC(C)C)NC1=O` (stereo partly drawn) [Compound B25, Diethyl (((2S,5S,E)-7-((2,4-dimethoxybenzyl)(methyl)carbamoyl)-2-isobutyl-3,16-dioxo-15-propyl-1,4-diazacyclohexadec-9-en-5-yl)(hydroxy)methyl)phosphonate], the IC50 in test [1] was 177 µM; against SARS2 protease it was over 200 µM; in test [2], 177 µM.

Take `CN(CCc1ccccc1)C(=O)CC[C@@H](C=O)NC(=O)[C@H](CC1CCCCC1)NC(=O)OCc1cccc(Cl)c1` (stereo in doubt) [Compound A36, 3-chlorobenzyl ((S)-3-cyclohexyl-1-(((S)-5-(methyl(phenethyl)amino)-1,5-dioxopentan-2-yl)amino)-1-oxopropan-2-yl)carbamate]: the IC50 in test [1] (setting [3]) was 5.2 µM; at SARS2 protease (setting [4]), over 200 µM; in test [2] (setting [5]) it was 26.9 µM.

Take `CCCCCN(C)C(=O)CC[C@H](NC(=O)[C@H](CC1CCCCC1)NC(=O)OCc1cccc(Cl)c1)C(=O)N(C)OC` [Compound A8, 3-chlorobenzyl ((S)-3-cyclohexyl-1-(((S)-1-(methoxy (methyl)amino)-5-(methyl(pentyl)amino)-1,5-dioxopentan-2-yl)amino)-1-oxopropan-2-yl)carbamate]: the values for the half-inhibitory concentration (IC50) (in test [1] (setting [3]); on SARS2 protease (setting [4]); in test [2] (setting [5])) were over 200 µM, 89.8 µM and over 200 µM, respectively.

For `CCNC(=O)OCCN(C)C(=O)CC[C@@H](C=O)NC(=O)[C@H](CC1CCCCC1)NC(=O)OCc1cccc(Cl)c1` (stereo in doubt) [Compound A46, 3-Chlorobenzyl ((12S, 15S)-16-cyclohexyl-12-formyl-8-methyl-4,9,14-trioxo-5-oxa-3,8,13-triazahexadecan-15-yl)carbamate], the figures for the half-maximal inhibitory concentration (IC50) (in test [1] (setting [3]); on SARS2 protease (setting [4]); in test [2] (setting [5])) were 8.6 µM, over 200 µM and 28 µM, respectively.

As for `CCN(CCc1ccccc1)C(=O)CC[C@@H](C=O)NC(=O)[C@H](CC1CCCCC1)NC(=O)OCc1cccc(Cl)c1` (stereo in doubt) [Compound A56, 3-Chlorobenzyl ((S)-3-cyclohexyl-1-(((S)-5-(ethyl(phenethyl)amino)-1,5-dioxopentan-2-yl)amino)-1-oxopropan-2-yl)carbamate], the figures for the IC50 (in test [1] (setting [3]); on SARS2 protease (setting [4]); in test [2] (setting [5])) were 9.3 µM, over 200 µM and 106 µM, respectively.

On to `CCCCCN(C)C(=O)CC[C@H](NC(=O)[C@H](CC1CCCCC1)NC(=O)OCc1cccc(Cl)c1)C(O)P(=O)(OCC)OCC` (stereo partly drawn) [Compound A9, 3-chlorobenzyl ((2S)-3-cyclohexyl-1-(((2S)-1-(diethoxyphosphoryl)-1-hydroxy-5-(methyl(pentyl)amino)-5-oxopentan-2-yl)amino)-1-oxopropan-2-yl)carbamate], for which the IC50 in test [1] (setting [3]) is 14 µM; on SARS2 protease (setting [4]), over 200 µM; in test [2] (setting [5]), 154 µM.

For the molecule `O=C[C@H](CCC(=O)N1CCOC(c2ccccc2)C1)NC(=O)[C@H](CC1CCCCC1)NC(=O)OCc1cccc(Cl)c1` (stereo in doubt) [Compound A45, 3-Chlorobenzyl ((2S)-3-cyclohexyl-1-(((2S)-1,5-dioxo-5-(2-phenylmorpholino)pentan-2-yl)amino)-1-oxopropan-2-yl)carbamate], the 50% inhibitory concentration (IC50) in test [1] (setting [3]) was 11 µM; at SARS2 protease (setting [4]), over 200 µM; in test [2] (setting [5]), 18.8 µM.

`CCOP(=O)(OCC)C(O)[C@@H]1CC(C(=O)NC)C/C=C/CCC(Cc2ccccc2)OC(=O)N[C@@H](CC(C)C)C(=O)N1` (stereo partly drawn) [Compound B27, Diethyl (((4S,7S,E)-15-benzyl-4-isobutyl-9-(methylcarbamoyl)-2,5-dioxo-1-oxa-3,6-diazacyclopentadec-11-en-7-yl)(hydroxy)methyl)phosphonate]: the IC50 in test [1] (Table D, FRET protease assay, read-out: Norwalk GGI.1 IC50) was 57.9 µM; on SARS2 protease (setting [4]) it was over 200 µM; in test [2] (Table D, FRET protease assay, read-out: HuNV GGII.4 IC50) it was 57.9 µM.

On to `CN(CCc1ccccc1Cl)C(=O)CC[C@@H](C=O)NC(=O)[C@H](CC1CCCCC1)NC(=O)OCc1cccc(Cl)c1` [Compound A105, 3-Chlorobenzyl ((S)-1-(((S)-5-((2-chlorophenethyl)(methyl)amino)-1,5-dioxopentan-2-yl)amino)-3-cyclohexyl-1-oxopropan-2-yl)carbamate], for which the half-inhibitory concentration (IC50) in test [1] (setting [3]) was 28.2 µM; on SARS2 protease (setting [4]), over 200 µM; in test [2] (setting [5]) it was 155 µM.

Regarding `CN1C(=O)CCC(NC(=O)[C@H](CC2CCCCC2)NC(=O)OCc2cccc(Cl)c2)C1O` (stereo partly drawn) [Compound A2, 3-chlorobenzyl ((2S)-3-cyclohexyl-1-((2-hydroxy-1-methyl-6-oxopiperidin-3-yl)amino)-1-oxopropan-2-yl)carbamate], the IC50 in test [1] (setting [3]) was 169 µM; on SARS2 protease (setting [4]), over 200 µM; in test [2] (setting [5]) it was 127 µM.

Take `CCS(=O)(=O)NCCN(C)C(=O)CC[C@@H](C=O)NC(=O)[C@H](CC1CCCCC1)NC(=O)OCc1cccc(Cl)c1` (stereo in doubt) [Compound A38, 3-Chlorobenzyl ((S)-3-cyclohexyl-1-(((S)-5-((2-(ethylsulfonamido)ethyl)(methyl)amino)-1,5-dioxopentan-2-yl)amino)-1-oxopropan-2-yl)carbamate]: the figures for the IC50 (in test [1] (setting [3]); at SARS2 protease (setting [4]); in test [2] (setting [5])) were 10.1 µM, 36 µM and 30.6 µM, respectively.

`CCCCCN(C)C(=O)CC[C@@H](C=O)NC(=O)[C@H](CC1CCCCC1)NC(=O)OCc1cccc(Cl)c1` [Compound A7, 3-chlorobenzyl ((S)-3-cyclohexyl-1-(((S)-5-(methyl(pentyl)amino)-1,5-dioxopentan-2-yl)amino)-1-oxopropan-2-yl)carbamate]: the IC50 in test [1] (setting [3]) turned out to be 1.6 µM; on SARS2 protease (setting [4]), 3.2 µM; in test [2] (setting [5]), 11.1 µM.

The values are drawn from patent US20230151034A1 (COCRYSTAL PHARMA, INC., priority 2020, published 2023).
